Measurements: ChEMBL document CHEMBL1201862, “PubChem BioAssay data set” (2004)
Each block holds one compound with its values, some of them ahead of it. Active and inactive are the calls of the source.

Legend:
Assay type in all cases: functional
[1] = target: Voltage-dependent T-type calcium channel subunit alpha-1H (Homo sapiens, UniProt O95180);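 also: channel activity triggered by adding a high calcium stimulation buffer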
[2] = target: Potassium voltage-gated channel subfamily KQT member 2 (Rattus norvegicus, UniProt O88943); assay: blockers of KCNQ2 channel current – cell-based, automated electrophysiology, set II, rat KCNQ2, dose response (AID 588637)
Potassium voltage-gated channel subfamily KQT member 2, sequence (O88943 whole entry): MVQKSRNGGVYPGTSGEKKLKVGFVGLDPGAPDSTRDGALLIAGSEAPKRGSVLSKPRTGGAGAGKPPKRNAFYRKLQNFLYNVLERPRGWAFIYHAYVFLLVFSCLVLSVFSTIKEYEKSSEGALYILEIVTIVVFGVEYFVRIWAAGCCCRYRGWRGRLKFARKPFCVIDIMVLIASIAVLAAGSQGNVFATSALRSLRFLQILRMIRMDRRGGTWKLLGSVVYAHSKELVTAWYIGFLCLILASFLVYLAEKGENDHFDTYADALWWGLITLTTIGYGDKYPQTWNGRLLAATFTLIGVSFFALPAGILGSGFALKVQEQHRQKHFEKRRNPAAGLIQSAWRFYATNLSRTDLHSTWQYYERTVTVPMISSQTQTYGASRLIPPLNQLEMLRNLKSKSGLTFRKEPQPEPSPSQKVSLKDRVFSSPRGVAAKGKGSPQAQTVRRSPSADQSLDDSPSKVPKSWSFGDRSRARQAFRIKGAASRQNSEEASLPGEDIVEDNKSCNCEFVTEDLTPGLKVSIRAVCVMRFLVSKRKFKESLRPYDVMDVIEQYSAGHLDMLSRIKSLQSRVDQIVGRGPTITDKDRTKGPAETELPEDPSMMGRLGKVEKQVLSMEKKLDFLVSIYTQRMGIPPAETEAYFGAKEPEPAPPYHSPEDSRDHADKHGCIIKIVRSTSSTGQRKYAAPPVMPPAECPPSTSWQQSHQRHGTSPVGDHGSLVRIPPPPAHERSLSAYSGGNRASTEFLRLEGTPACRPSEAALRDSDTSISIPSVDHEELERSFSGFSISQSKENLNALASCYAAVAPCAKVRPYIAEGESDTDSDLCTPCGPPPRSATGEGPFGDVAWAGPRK

[3] = target: G-protein coupled receptor 55 (Homo sapiens, UniProt Q9Y2T6); assay: selective activators of receptor GPR55 – imaging, U2OS cells, beta-arrestin-GFP redistribution, primary screen (AID 1961)
G-protein coupled receptor 55, sequence (Q9Y2T6 whole entry): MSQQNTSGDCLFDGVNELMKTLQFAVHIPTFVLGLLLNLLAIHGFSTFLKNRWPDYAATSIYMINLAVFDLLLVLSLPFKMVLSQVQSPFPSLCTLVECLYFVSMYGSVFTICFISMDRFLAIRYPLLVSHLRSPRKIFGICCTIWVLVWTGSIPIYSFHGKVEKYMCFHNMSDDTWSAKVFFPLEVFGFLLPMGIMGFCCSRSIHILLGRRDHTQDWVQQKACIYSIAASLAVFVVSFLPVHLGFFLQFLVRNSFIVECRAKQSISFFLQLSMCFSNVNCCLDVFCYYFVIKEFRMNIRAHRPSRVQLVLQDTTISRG

[4] = target: T1, High affinity choline transporter 1 (Homo sapiens, UniProt Q9GZV3); assay: human choline transporter potentiators, potency – cell-based, 10-point CRC, membrane potential dye, dose response (AID 602376)
T1 sequence (Q9GZV3 whole entry): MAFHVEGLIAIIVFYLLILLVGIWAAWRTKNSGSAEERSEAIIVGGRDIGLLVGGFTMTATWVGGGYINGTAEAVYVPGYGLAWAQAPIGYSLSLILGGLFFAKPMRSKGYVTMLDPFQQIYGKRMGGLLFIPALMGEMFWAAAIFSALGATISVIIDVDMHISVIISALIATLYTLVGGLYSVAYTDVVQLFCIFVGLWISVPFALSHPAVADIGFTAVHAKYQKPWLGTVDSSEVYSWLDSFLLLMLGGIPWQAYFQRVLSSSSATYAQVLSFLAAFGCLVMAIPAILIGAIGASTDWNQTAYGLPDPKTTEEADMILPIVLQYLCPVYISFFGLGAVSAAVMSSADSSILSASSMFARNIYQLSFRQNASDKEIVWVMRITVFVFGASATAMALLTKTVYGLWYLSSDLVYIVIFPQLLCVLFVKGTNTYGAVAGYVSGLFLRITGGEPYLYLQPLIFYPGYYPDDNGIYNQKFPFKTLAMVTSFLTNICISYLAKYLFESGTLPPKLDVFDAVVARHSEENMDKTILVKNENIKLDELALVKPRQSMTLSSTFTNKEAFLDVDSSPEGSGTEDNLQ

[5] = target: Apoptotic protease-activating factor 1 (Homo sapiens, UniProt O14727); assay: SAR analysis of small molecule Activators of Apaf-1 in a Fluorescent assay.; settings: read-out: EC50_Mean;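 also: caspase-3 cleavage of fluorogenic Rh110 DEVD substrate downstream of apoptosome activation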
Apoptotic protease-activating factor 1, sequence (O14727 whole entry): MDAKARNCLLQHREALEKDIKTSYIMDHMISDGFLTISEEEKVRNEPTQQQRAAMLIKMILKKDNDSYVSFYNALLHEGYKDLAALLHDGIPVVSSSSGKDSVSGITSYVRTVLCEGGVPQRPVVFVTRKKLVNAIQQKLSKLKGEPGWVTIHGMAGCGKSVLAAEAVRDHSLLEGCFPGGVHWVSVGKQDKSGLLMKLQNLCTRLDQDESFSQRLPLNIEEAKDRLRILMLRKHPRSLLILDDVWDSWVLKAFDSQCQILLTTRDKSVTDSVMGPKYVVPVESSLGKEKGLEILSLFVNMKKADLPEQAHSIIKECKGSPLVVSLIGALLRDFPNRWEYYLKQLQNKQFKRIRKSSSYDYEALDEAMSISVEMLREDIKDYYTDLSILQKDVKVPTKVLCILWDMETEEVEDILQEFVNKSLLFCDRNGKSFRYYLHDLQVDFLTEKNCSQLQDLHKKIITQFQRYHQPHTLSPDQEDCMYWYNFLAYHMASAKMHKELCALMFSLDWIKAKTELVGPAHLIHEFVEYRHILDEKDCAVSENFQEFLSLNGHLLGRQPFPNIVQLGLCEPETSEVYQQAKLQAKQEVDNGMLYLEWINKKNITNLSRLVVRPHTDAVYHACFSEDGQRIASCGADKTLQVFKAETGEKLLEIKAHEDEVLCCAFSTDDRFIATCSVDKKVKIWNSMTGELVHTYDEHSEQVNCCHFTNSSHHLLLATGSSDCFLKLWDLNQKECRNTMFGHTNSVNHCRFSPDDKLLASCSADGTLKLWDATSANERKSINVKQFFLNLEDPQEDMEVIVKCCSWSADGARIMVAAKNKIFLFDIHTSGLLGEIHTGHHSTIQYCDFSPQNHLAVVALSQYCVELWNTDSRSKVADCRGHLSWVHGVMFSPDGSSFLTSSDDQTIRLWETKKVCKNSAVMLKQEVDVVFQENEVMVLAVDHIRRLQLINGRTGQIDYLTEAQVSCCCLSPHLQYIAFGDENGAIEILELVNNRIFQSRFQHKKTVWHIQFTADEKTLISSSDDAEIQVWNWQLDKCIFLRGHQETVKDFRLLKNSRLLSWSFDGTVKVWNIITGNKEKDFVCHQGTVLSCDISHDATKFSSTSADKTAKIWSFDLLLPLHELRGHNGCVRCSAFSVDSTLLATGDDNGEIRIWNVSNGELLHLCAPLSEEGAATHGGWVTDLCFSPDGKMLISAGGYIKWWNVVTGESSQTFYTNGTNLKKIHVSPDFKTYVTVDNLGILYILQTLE

[6] = target: Benomyl/methotrexate resistance protein (Candida albicans, UniProt P28873); assay: Candida albicans Mdr1 pump inhibition curves – singleplex, Cherry Pick1 hits, dose response (AID 588608)
Benomyl/methotrexate resistance protein, sequence (P28873 whole entry): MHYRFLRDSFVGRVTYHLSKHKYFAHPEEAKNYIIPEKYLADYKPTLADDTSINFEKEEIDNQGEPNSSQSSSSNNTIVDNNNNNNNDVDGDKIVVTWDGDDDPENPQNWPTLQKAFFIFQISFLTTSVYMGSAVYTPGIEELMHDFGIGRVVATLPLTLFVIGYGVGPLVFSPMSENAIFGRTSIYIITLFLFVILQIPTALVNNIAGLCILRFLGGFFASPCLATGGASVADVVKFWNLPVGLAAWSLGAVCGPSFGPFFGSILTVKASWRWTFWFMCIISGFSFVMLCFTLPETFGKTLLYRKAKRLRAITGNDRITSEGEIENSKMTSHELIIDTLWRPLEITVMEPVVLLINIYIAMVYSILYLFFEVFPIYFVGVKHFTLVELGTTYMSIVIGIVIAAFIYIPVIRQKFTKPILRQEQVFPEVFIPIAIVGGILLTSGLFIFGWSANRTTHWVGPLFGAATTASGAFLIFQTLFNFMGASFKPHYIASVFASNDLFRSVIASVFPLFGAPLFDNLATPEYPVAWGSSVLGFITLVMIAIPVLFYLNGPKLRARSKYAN

[7] = target: 26S proteasome non-ATPase regulatory subunit 14 (Homo sapiens, UniProt O00487); assay: inhibition of proteasome subunit RPN11 – biochemical, fluorescence polarization, uHTS hits, confirmation (AID 602368)
26S proteasome non-ATPase regulatory subunit 14, sequence (O00487 whole entry): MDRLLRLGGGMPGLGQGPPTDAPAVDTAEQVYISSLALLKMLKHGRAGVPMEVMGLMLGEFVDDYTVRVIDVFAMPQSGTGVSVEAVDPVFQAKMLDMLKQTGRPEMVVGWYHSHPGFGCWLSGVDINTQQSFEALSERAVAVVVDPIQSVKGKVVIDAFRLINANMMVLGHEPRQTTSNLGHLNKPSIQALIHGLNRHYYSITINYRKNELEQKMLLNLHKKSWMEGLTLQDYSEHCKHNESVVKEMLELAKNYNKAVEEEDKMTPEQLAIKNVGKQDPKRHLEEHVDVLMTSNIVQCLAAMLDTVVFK

[8] = target: 72 kDa type IV collagenase (Homo sapiens, UniProt P08253); assay: Dose Response validation of uHTS RPN11 inhibitor hits using a MMP-2 Fluorescence assay.
72 kDa type IV collagenase, sequence (P08253 whole entry): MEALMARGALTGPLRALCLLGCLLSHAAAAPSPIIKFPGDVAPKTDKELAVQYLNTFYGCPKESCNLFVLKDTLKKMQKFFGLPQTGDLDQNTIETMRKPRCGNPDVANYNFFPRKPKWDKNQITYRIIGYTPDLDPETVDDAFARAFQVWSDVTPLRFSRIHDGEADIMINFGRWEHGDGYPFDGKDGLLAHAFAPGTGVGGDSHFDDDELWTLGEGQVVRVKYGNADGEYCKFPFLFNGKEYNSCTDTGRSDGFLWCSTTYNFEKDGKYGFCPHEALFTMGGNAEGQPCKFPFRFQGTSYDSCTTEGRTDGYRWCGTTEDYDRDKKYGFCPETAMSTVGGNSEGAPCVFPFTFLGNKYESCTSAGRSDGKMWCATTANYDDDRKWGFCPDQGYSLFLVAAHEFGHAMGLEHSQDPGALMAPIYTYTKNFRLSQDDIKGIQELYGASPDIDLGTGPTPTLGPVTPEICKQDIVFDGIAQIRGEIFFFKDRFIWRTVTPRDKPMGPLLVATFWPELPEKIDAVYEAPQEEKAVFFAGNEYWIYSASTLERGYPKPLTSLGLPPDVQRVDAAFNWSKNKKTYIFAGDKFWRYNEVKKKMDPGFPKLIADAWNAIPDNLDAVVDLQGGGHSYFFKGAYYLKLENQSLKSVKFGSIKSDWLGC

Prothrombin = Prothrombin (Bos taurus, UniProt P00735); assay: thrombin protease inhibitors – biochemical, fluorescence polarization, uHTS hits, dose response (AID 602369)

Compound: COc1ccc(-c2nc(CSCC(=O)NC3CCCc4ccccc43)c(C)o2)cc1 (centres undefined)
EC50 [1]: 3.95 µM (active)
IC50 [2]: 1.76 µM (active)

Compound: CCc1ccc(Nc2n[n+](-c3ccccc3)c(-c3ccc(SC)cc3)s2)cc1
EC50 [3]: 23.1 µM (inactive)
EC50 [4]: 10.2 µM (active)

Compound: COc1ccc(C2CC(c3ccccc3C(F)(F)F)=NN2c2ccc(S(N)(=O)=O)cc2)cc1 (centres undefined)
EC50 [6]: 22.6 µM (active)

Second part, the compound after the results:

EC50 [5]: > 100 µM (inactive)
Compound: O=C(Nc1cccc(O)c1)C1CC(c2ccc(F)cc2)=NO1 (centres undefined)

IC50 [7]: 14.1 µM (active)
IC50 [8]: > 100 µM (inactive)
IC50 (Prothrombin): 26.8 µM (active)
Compound: CC1CCN(c2ccc3c(c2)S(=O)(=O)c2cccc(C(=O)NC4CCCCC4)c2C3=O)CC1
